This is an account of results in patent US20130045962A1, “PEPTIDE DEFORMYLASE INHIBITORS” (priority 2007, published 2013).

Holding throughout (experiment): Antimicrobial activity assay (broth microdilution MIC)
What all share (assay type): cell-based
A general note: Broth dilution looks for growth in wells or tubes with falling amounts of substance.

For assay [1], the system named is Escherichia coli 120 (AcrAB−). The following applies: for MIC E. coli 120 AcrAB—: individual results, panel run 2 times; for MIC: Escherichia coli. How it is done: (§1) Whole-cell antimicrobial activity was determined by broth microdilution using the Clinical and Laboratory Standards Institute (CLSI, formerly NCCLS) recommended methodology (NCCLS Document M7-A6, “Methods for Dilution Susceptibility Tests for Bacteria that Grow Aerobically Approved Standard Sixth Edition”, 2003). Compounds were tested in serial two-fold dilutions ranging from 64 to 0.06 μg/mL. A panel of 12 strains was evaluated in the assay. This panel consisted of the following laboratory strains: Staphylococcus aureus Oxford, Staphylococcus aureus WCUH29, Enterococcus faecalis I, Enterococcus faecalis 7, Haemophilus influenzae Q1, Haemophilus influenzae NEMC1, Moraxella catarrhalis 1502, Streptococcus pneumoniae 1629, Streptococcus pneumoniae N1387, Streptococcus pneumoniae Ery2, Escherichia coli 7623 (AcrABEFD+) and Escherichia coli 120 (AcrAB−). The minimum inhibitory concentration (MIC) was determined as the lowest concentration of compound that inhibited visible growth. A mirror reader was used to assist in determining the MIC endpoint.

Assay [2] relates to Escherichia coli 7623 (AcrABEFD+). Particulars: for MIC: Escherichia coli, read-out: MIC E. coli 7623 AcrABEFD+. As to the method:
as §1

Assay [3] relates to Haemophilus influenzae NEMC1. Particulars: for MIC: Haemophilus influenzae, read-out: MIC H. influenzae NEMC1. How it is done: as §1
Assay [4] relates to Haemophilus influenzae Q1. The following applies: for MIC: Haemophilus influenzae, read-out: MIC H. influenzae Q1; for MIC H. influenzae Q1: individual results. How it is done:
as §1

The subject of a further assay is Enterococcus faecalis 7. Particulars: median of all results obtained, read-out: MIC E. faecalis 7. How it is done:
as §1

The test system of another assay is Enterococcus faecalis I. Particulars: median of all results obtained, read-out: MIC E. faecalis I. How it is done:
as §1

For assay [5], the system named is Staphylococcus aureus Oxford. Particulars: median of all results obtained, read-out: MIC S. aureus Oxford. As to the method:
as §1

Assay [6] concerns Streptococcus pneumoniae 1629. Particulars: median of all results obtained, read-out: MIC S. pneumoniae 1629. How it is done: as §1
For assay [7], the system named is Streptococcus pneumoniae N1387. Particulars: median of all results obtained, read-out: MIC S. pneumoniae N1387. How it is done: as §1
Setting [8] is: individual results, panel run 2 times.
Where [9] appears, read: NEMC1, individual results, panel run 2 times.
Setting [10] is: Q1, individual results, panel run 2 times.
Where [11] appears, read: read-out: MIC E. coli 120 AcrAB—, median of all results obtained.
Setting [12] is: NEMC1, median of all results obtained.
Setting [13] is: Q1, median of all results obtained.

Converted amounts (≈) assume the structure as drawn. “And” between values parts separate entries of the source, which are not always exact repeats. Identical values can stand only once. Like-named read-outs stand apart in the source and are kept apart here.

For `Cc1nc(NNC(=O)[C@H](CC2CCCC2)CN(O)C=O)c(F)c(N2CCN(C)C3(CC3)C2)n1` [Example 275, ((2R)-2-(Cyclopentylmethyl)-3-{2-[5-fluoro-2-methyl-6-(4-methyl-4,7-diazaspiro[2.5]oct-7-yl)-4-pyrimidinyl]hydrazino}-3-oxopropyl)hydroxyformamide], the “MIC E. coli 120 AcrAB—” value in [1] was “≦0.06, μg/mL and 0.5 μg/mL”. The “MIC E. coli 7623 AcrABEFD+” value in assay [2] (setting [8]) was 4 µg/mL and 16 µg/mL. In addition, the MIC in assay [3] (setting [9]) is 1 µg/mL (≈ 2.16 µM); in assay [4] (setting [10]) it was 0.5 µg/mL (≈ 1.08 µM). In assay [4] (panel run 2 times), the “MIC H. influenzae Q1” value came to 1 µg/mL (≈ 2.16 µM).

As for `CN1CCN(c2nc(Cl)nc(NNC(=O)[C@H](CC3CCCC3)CN(O)C=O)c2F)CC12CC2` [Example 172, [(2R)-3-{2-[2-Chloro-5-fluoro-6-(4-methyl-4,7-diazaspiro[2.5]oct-7-yl)-4-pyrimidinyl]hydrazino}-2-(cyclopentylmethyl)-3-oxopropyl]hydroxyformamide], the MIC was 0.125 to 0.5 µg/mL (≈ 0.258 to 1.03 µM) in [1] (read-out: MIC E. coli 120 AcrAB—, individual results, panel run 2 times); 1 µg/mL (≈ 2.07 µM) in [3] (setting [9]); 1 µg/mL (≈ 2.07 µM) in [4] (setting [10]). Moreover, in assay [2] (setting [8]), the “MIC E. coli 7623 AcrABEFD+” value is 4 µg/mL and 16 µg/mL. For the same compound, the “MIC H. influenzae NEMC1” value in assay [3] (setting [8]) amounted to 2 µg/mL (≈ 4.13 µM). Further, in [4] (panel run 2 times), the “MIC H. influenzae Q1” value is 2 µg/mL (≈ 4.13 µM).

For `Cc1nc(NNC(=O)[C@H](CC2CCCC2)CN(O)C=O)c(F)c(N2CCN(C)C[C@H]2C)n1` [Example 109, [(2R)-2-(Cyclopentylmethyl)-3-(2-{6-[(2R)-2,4-dimethyl-1-piperazinyl]-5-fluoro-2-methyl-4-pyrimidinyl}hydrazino)-3-oxopropyl]hydroxyformamide], in [1], the “MIC E. coli 120 AcrAB—” value is “≦0.06, μg/mL and 0.125 μg/mL”. The MIC in [2] (setting [8]) amounted to 8 µg/mL (≈ 17.7 µM); in [3] (setting [9]), 1 µg/mL (≈ 2.21 µM); in assay [4] (setting [10]), 0.5 µg/mL (≈ 1.11 µM).

As for `Cc1nc(NNC(=O)[C@H](CC2CCCC2)CN(O)C=O)c(F)c(N2CCN3CCOC[C@@H]3C2)n1` [Example 24, [(2R)-2-(Cyclopentylmethyl)-3-(2-{5-fluoro-6-[(9aS)-hexahydropyrazino[2,1-c][1,4]oxazin-8(1H)-yl]-2-methyl-4-pyrimidinyl}hydrazino)-3-oxopropyl]hydroxyformamide], the MIC in the assay on Enterococcus faecalis 7 is 32 µg/mL (≈ 66.7 µM); with Enterococcus faecalis I, 48 µg/mL (≈ 100 µM); in assay [1] (setting [11]) it was 0.188 µg/mL (≈ 0.391 µM); in assay [2] (median of all results obtained) it was 16 µg/mL (≈ 33.4 µM); in [3] (setting [12]), 1 µg/mL (≈ 2.09 µM); in assay [4] (setting [13]), 0.5 µg/mL (≈ 1.04 µM). Also, the MIC worked out at 2 µg/mL (≈ 4.17 µM) in assay [5], 0.75 µg/mL (≈ 1.56 µM) in assay [6] and 0.5 µg/mL (≈ 1.04 µM) in [7].

As to `C[C@@H]1CN(C)CCN1c1nc(Cl)nc(NNC(=O)[C@H](CC2CCCC2)CN(O)C=O)c1F` [Example 63, [(2R)-3-(2-{2-Chloro-6-[(2R)-2,4-dimethyl-1-piperazinyl]-5-fluoro-4-pyrimidinyl}hydrazino)-2-(cyclopentylmethyl)-3-oxopropyl]hydroxyformamide], the MIC in [1] (setting [11]) came to 0.25 µg/mL (≈ 0.53 µM); in assay [2] (median of all results obtained), 4 µg/mL (≈ 8.48 µM); in [3] (setting [12]) it was 0.5 µg/mL (≈ 1.06 µM); in [4] (setting [13]) it was 0.25 µg/mL (≈ 0.53 µM).
